Measured values as given in patent publication US6737383B1, “Herbicidal oxadiazolidines” (priority 1999, dated 2004).

Key:
bedstraw = assay: Test B pre/postemergence bedstraw; type: in vivo, Galium aparine
In short: (§1)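 Response is a visual 0-to-10 score relative to untreated plants, where 0 means no effect and 10 means complete control, taken twelve to sixteen days after application. Treatments went onto soil at planting and onto foliage of 1- to 4-leaf plants, using a surfactant-containing non-phytotoxic solvent.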

blackgrass = assay: Test B pre/postemergence blackgrass; type: in vivo, Alopecurus myosuroides
In short: as §1

surinam grass = assay: Test B pre/postemergence surinam grass; type: in vivo, Brachiaria decumbens
In short: as §1

cocklebur = assay: Test B pre/postemergence cocklebur; type: in vivo, Xanthium strumarium
In short: as §1

corn = assay: Test B pre/postemergence corn; type: in vivo, Zea mays
In short: as §1

crabgrass = assay: Test B pre/postemergence crabgrass; type: in vivo, Digitaria sanguinalis
In short: as §1

rape = assay: Test B pre/postemergence rape; type: in vivo, Brassica napus
In short: as §1

soybean = assay: Test B pre/postemergence soybean; type: in vivo, Glycine max
In short: as §1

sugar beet = assay: Test B pre/postemergence sugar beet; type: in vivo, Beta vulgaris
In short: as §1

velvetleaf = assay: Test B pre/postemergence velvetleaf; type: in vivo, Abutilon theophrasti
In short: as §1

wheat = assay: Test B pre/postemergence wheat; type: in vivo, Triticum aestivum
In short: as §1

wild oat = assay: Test B pre/postemergence wild oat; type: in vivo, Avena fatua
In short: as §1

purple nutsedge = assay: Test B pre/postemergence purple nutsedge; type: in vivo, Cyperus rotundus
In short: as §1

rice = assay: Test B flood test rice; type: in vivo, Oryza sativa
In short: (§2)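 Each value is a visual injury score relative to controls, with 10 meaning complete control and 0 no effect. Evaluation took place twelve to sixteen days after the 2-leaf-stage plants were treated and kept in the greenhouse.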

smallflower flatsedge = assay: Test B flood test smallflower flatsedge; type: in vivo, Cyperus difformis
In short: as §2

duck salad = assay: Test B flood test duck salad; type: in vivo, Heteranthera limosa
In short: as §2

bamyardgrass = assay: Test B flood test barnyardgrass; type: in vivo, Echinochloa crus-galli
In short: as §2

[1] = Preemergence, Rate 62 g/ha, scale of 0 to 10 where 0 is no effect and 10 is complete control
[2] = Preemergence, Rate 250 g/ha, scale of 0 to 10 where 0 is no effect and 10 is complete control
[3] = Preemergence, Rate 500 g/ha, scale of 0 to 10 where 0 is no effect and 10 is complete control
[4] = Rate 62 g/ha, Postemergence, scale of 0 to 10 where 0 is no effect and 10 is complete control
[5] = Rate 125 g/ha, Postemergence, scale of 0 to 10 where 0 is no effect and 10 is complete control
[6] = Rate 125 g/ha, Preemergence, scale of 0 to 10 where 0 is no effect and 10 is complete control
[7] = Rate 250 g/ha, Postemergence, scale of 0 to 10 where 0 is no effect and 10 is complete control
[8] = Rate 500 g/ha, Postemergence, scale 0 to 10, 0 no effect, 10 complete control
[9] = Rate 62 g/ha, headed Pre-emergence (flood test species), scale 0 to 10 (0 no effect, 10 complete control)
[10] = Rate 125 g/ha, Pre-emergence, flood test species, scale 0 to 10 where 0 is no effect and 10 is complete control
[11] = Rate 250 g/ha, Pre-emergence, flood-test species, scale 0 to 10, 0 is no effect, 10 is complete control
[12] = Rate 500 g/ha, Pre-emergence, flood test species, scale 0 to 10 (0 no effect, 10 complete control)

## Cc1ccccc1-n1c(=O)on(C(=O)N(c2ccc(C(C)(C)C)cc2)C(C)C)c1=O [Compound 270]
bedstraw; [1]
  Bedstraw plant response rating: 0
bedstraw; [2]
  Bedstraw plant response rating: 0
bedstraw; [3]
  Plant response rating, Bedstraw: 0
bedstraw; [4]
  Bedstraw plant response rating: 0
bedstraw; [5]
  Bedstraw plant response rating: 0
bedstraw; [6]
  Bedstraw plant response rating: 0
bedstraw; [7]
  Plant response rating, Bedstraw: 0
bedstraw; [8]
  Bedstraw plant response rating: 0
blackgrass; [1]
  Blackgrass plant response rating: 0
blackgrass; [2]
  Blackgrass plant response rating: 0
blackgrass; [3]
  Plant response rating, Blackgrass: 0
blackgrass; [4]
  Blackgrass plant response rating: 0
blackgrass; [5]
  Blackgrass plant response rating: 0
blackgrass; [6]
  Blackgrass plant response rating: 0
blackgrass; [7]
  Plant response rating, Blackgrass: 0
blackgrass; [8]
  Blackgrass plant response rating: 0
Surinam grass; [1]
  B. signalgrass plant response rating: 0
Surinam grass; [2]
  B. signalgrass plant response rating: 0
Surinam grass; [3]
  Plant response rating, B. signalgrass: 0
Surinam grass; [4]
  B. signalgrass plant response rating: 0
Surinam grass; [5]
  B. signalgrass plant response rating: 0
Surinam grass; [6]
  B. signalgrass plant response rating: 0
Surinam grass; [7]
  Plant response rating, B. signalgrass: 0
Surinam grass; [8]
  B. signalgrass plant response rating: 0
cocklebur; [1]
  Cocklebur plant response rating: 0
cocklebur; [2]
  Cocklebur plant response rating: 0
cocklebur; [3]
  Plant response rating, Cocklebur: 0
cocklebur; [4]
  Cocklebur plant response rating: 0
cocklebur; [5]
  Cocklebur plant response rating: 0
cocklebur; [6]
  Cocklebur plant response rating: 0
cocklebur; [7]
  Plant response rating, Cocklebur: 0
cocklebur; [8]
  Cocklebur plant response rating: 0
corn; [1]
  Corn plant response rating: 0
corn; [2]
  Corn plant response rating: 0
corn; [3]
  Plant response rating, Corn: 0
corn; [4]
  Corn plant response rating: 0
corn; [5]
  Corn plant response rating: 0
corn; [6]
  Corn plant response rating: 0
corn; [7]
  Plant response rating, Corn: 0
corn; [8]
  Corn plant response rating: 0
crabgrass; [1]
  Crabgrass plant response rating: 0
crabgrass; [2]
  Crabgrass plant response rating: 0
crabgrass; [3]
  Plant response rating, Crabgrass: 0
crabgrass; [5]
  Crabgrass plant response rating: 0
crabgrass; [6]
  Crabgrass plant response rating: 0
crabgrass; [7]
  Plant response rating, Crabgrass: 0
crabgrass; [8]
  Crabgrass plant response rating: 0
rape; [1]
  Rape plant response rating: 0
rape; [2]
  Rape plant response rating: 0
rape; [3]
  Plant response rating, Rape: 0
rape; [5]
  Rape plant response rating: 0
rape; [6]
  Rape plant response rating: 0
rape; [7]
  Plant response rating, Rape: 0
rape; [8]
  Rape plant response rating: 0
soybean; [1]
  Soybean plant response rating: 0
soybean; [2]
  Soybean plant response rating: 0
soybean; [3]
  Plant response rating, Soybean: 0
soybean; [5]
  Soybean plant response rating: 0
soybean; [6]
  Soybean plant response rating: 0
soybean; [7]
  Plant response rating, Soybean: 2
soybean; [8]
  Soybean plant response rating: 2
Sugar beet; [1]
  Sugarbeets plant response rating: 0
Sugar beet; [2]
  Sugarbeets plant response rating: 0
Sugar beet; [3]
  Plant response rating, Sugarbeets: 0
Sugar beet; [5]
  Sugarbeets plant response rating: 0
Sugar beet; [6]
  Sugarbeets plant response rating: 0
Sugar beet; [7]
  Plant response rating, Sugarbeets: 0
Sugar beet; [8]
  Sugarbeets plant response rating: 0
velvetleaf; [1]
  Velvetleaf plant response rating: 0
velvetleaf; [2]
  Velvetleaf plant response rating: 0
velvetleaf; [3]
  Plant response rating, Velvetleaf: 0
velvetleaf; [5]
  Velvetleaf plant response rating: 0
velvetleaf; [6]
  Velvetleaf plant response rating: 0
velvetleaf; [7]
  Plant response rating, Velvetleaf: 0
velvetleaf; [8]
  Velvetleaf plant response rating: 0
wheat; [1]
  Wheat plant response rating: 0
wheat; [2]
  Wheat plant response rating: 0
wheat; [3]
  Plant response rating, Wheat: 0
wheat; [5]
  Wheat plant response rating: 0
wheat; [6]
  Wheat plant response rating: 0
wheat; [7]
  Plant response rating, Wheat: 0
wheat; [8]
  Wheat plant response rating: 0
Wild oat; [1]
  Wild oats plant response rating: 0
Wild oat; [2]
  Wild oats plant response rating: 0
Wild oat; [3]
  Plant response rating, Wild oats: 0
Wild oat; [5]
  Wild oats plant response rating: 0
Wild oat; [7]
  Plant response rating, Wild oats: 0
Wild oat; [8]
  Wild oats plant response rating: 0
Purple nutsedge; [1]
  Nutsedge plant response rating: 0
Purple nutsedge; [2]
  Nutsedge plant response rating: 0
Purple nutsedge; [3]
  Plant response rating, Nutsedge: 0
Purple nutsedge; [5]
  Nutsedge plant response rating: 0
Purple nutsedge; [6]
  Nutsedge plant response rating: 0
Purple nutsedge; [7]
  Plant response rating, Nutsedge: 0
Purple nutsedge; [8]
  Nutsedge plant response rating: 0
rice; [9]
  Rice plant response rating: 0
rice; [10]
  Rice plant response rating: 0
rice; [11]
  Rice plant response rating: 0
rice; [12]
  Rice plant response rating: 0
Smallflower flatsedge; [9]
  S. Flatsedge plant response rating: 0
Smallflower flatsedge; [10]
  S. Flatsedge plant response rating: 0
Smallflower flatsedge; [11]
  S. Flatsedge plant response rating: 0
Smallflower flatsedge; [12]
  S. Flatsedge plant response rating: 0
Duck salad; [9]
  Ducksalad plant response rating: 0
Duck salad; [10]
  Ducksalad plant response rating: 0
Duck salad; [11]
  Ducksalad plant response rating: 0
Duck salad; [12]
  Ducksalad plant response rating: 0
bamyardgrass; [9]
  Barnyardgrass plant response rating: 0
bamyardgrass; [10]
  Barnyardgrass plant response rating: 0
bamyardgrass; [11]
  Barnyardgrass plant response rating: 0
bamyardgrass; [12]
  Barnyardgrass plant response rating: 0
